One assay deals with AGRP, NPY and SLC32A1. The assay can be described thus: AGRP, NPY and SLC32A1 mRNA in SH-SY5Y cells. Format: cell-based, human. The following applies: 10 μM, 48 h. The text has this:
Mouse GT1-7 hypothalamic neuronal cell line (Sigma-Aldrich, SCC116) and human SH-SY5Y neuroblastoma cell line (Sigma Aldrich, 94030304) were purchased and cultured according to the manufacturers' instructions. Purified Ad-TET3 adenovirus (Ad-FLAG.h-TET3, ADV-225322, Vector Biolabs) expressing human TET3 from a CMV promoter and Ad-GFP control adenovirus (1060, Vector Biolabs) were purchased.
For Bobcat339 treatment (FIG. 15A and FIG. 15B), GT1-7 cells grown in 24-well plates at 2×10^5 cells/well were incubated with vehicle or Bobcat339 at a final concentration of 10 μM for 6 h, followed by RNA and protein extractions. […] Protein and RNA were isolated 48 h later and analyzed.
Total RNAs were extracted from neuronal cells or homogenized hypothalamic arcuate nucleus tissue samples using PureLink RNA Mini Kit (Ambion, 12183025). cDNA was synthesized using PrimeScript RT Reagent Kit in a 20 μl reaction containing 0.5-1 μg of total RNA. Real-time quantitative PCR was performed in a 15 μl reaction containing 0.5-1 μl of cDNA using SsoAdvanced Universal SYBR Green Supermix in a Bio-Rad iCycler. […]

A further assay relates to Agrp promoter. Nature of the assay: ChIP-qPCR at the Agrp promoter in mouse ARC. It counts as in vivo. The following applies: leptin 5 mg/kg. How it is done: To prepare antibodies, 5 μl (packed volume) of ChIP grade Dynabeads Protein G (Invitrogen, Thermo Scientific, 10004D) were washed twice with 1 ml of binding buffer (0.2% Tween-20 in PBS), followed by incubation on a rotator with 10 μg of rabbit polyclonal anti-TET3 (Active Motif, 61395) (FIG. 12A), anti-STAT3 (Proteintech, 10253-2-AP), anti-NCOR1 (Cell Signaling, 5948S) (Hainberger et al., 2020, Front Immunol., 11:579), anti-HDAC4 (Active Motif, 40969) (FIG. 12B), anti-H3K9ac (Active Motif, 39137) (validated by the vendor), or preimmune rabbit IgG (as a negative control) in 350 μl of binding buffer at 4 °C overnight (Gao, Y. et al., 2020, Advanced Science, 7:2002518; Hainberger, D. et al., 2020, Frontiers in Immunology, 11:579). Antibody bound beads were washed twice with 1 ml of binding buffer, resuspended in 50 μl of dilution buffer (0.01% SDS, 1.1% Triton X-100, 1.2 mM EDTA, 16.7 mM Tris-HCl at PH 8.0, 167 mM NaCl), and kept on ice until use. To prepare chromatin, freshly isolated ARCs (2 ARCs from one mouse per ChIP, FIG. 6D and FIG. 6I) were washed twice with 1 ml of cold-PBS, followed by cross-linking in 1% paraformaldehyde/PBS on a rotator at room temperature for 15 min. Glycine buffer (150 mM final concentration) was added and incubated in rotation at room temperature for 10 min to quench cross-linking. Cross-linked ARCs were washed twice with PBS and homogenized (5-10 strokes) using a disposable pellet pestle (Fisher Scientific, 12-141-368) in 300 μl of cold cell lysis buffer (50 mM Tris-HCl at PH 8.0, 140 mM NaCl, 1 mM EDTA, 10% glycerol, 0.5% NP-40, 0.25% Triton X-100), followed by incubation at 4 °C for 20 min to lyse the plasma membrane. […]
For orientation: Quantitative PCR measures a nucleic acid by following its amplification.

`Nc1nc(=O)n(-c2cccc(-c3ccccc3)c2)cc1Cl` [Bobcat339, 4-Amino-1-[1,1′-biphenyl]-3-yl-5-chloro-2(1H)-pyrimidinone]: in the assay on AGRP, NPY and SLC32A1, the “AGRP, NPY and SLC32A1 mRNA levels” value is “significant increases in Agrp/NPY mRNAs”.

In the case of “leptin: adipose hormone; mouse leptin L3772-1MG or human leptin L4146-1MG, Sigma Aldrich”, the “histone acetylation (H3K9ac) at the Agrp promoter” value with Agrp promoter was “reduction was observed in histone acetylation at the Agrp promoter”. Besides, the “binding of STAT3, TET3, NCOR1, and HDAC4 to the Agrp promoter” value with Agrp promoter (AAV-sgTet3 mice) was “failed to do so in AAV-sgTet3 injected mice”; with Agrp promoter (control mice), “increased binding of STAT3, TET3, NCOR1, and HDAC4 to the Agrp promoter”.

The values are drawn from patent publication US20260355199A1, “COMPOSITIONS AND METHODS FOR TREATING OR PREVENTING NONALCOHOLIC STEATOHEPATITIS (NASH), ANOREXIA, DEPRESSION, ENDOMETRIOSIS, AND OTHER DISEASES OR DISORDERS” (priority 2022, published 2026).
